Measurements: PubChem BioAssay AID504542 (Sanford-Burnham Center for Chemical Genomics, 2011)
The source made the active and inactive calls. How the calls were made is not given here.

Test system: S. cerevisiae TIM10 counterscreen strain, luminescence
Assay: TIM10 counterscreen strain luminescent signal reducers – S. cerevisiae, uHTS hits, counter-screen for tim10-1 inhibitor project, dose response (AID 504542)

In the case of `N/C(=N\OC(=O)CCCc1ccccc1)c1ccccc1Cl`, the IC50 is reported as 7.22 µM.

For `COc1ccc(C(=O)O/N=C(\N)Cc2ccc(Cl)c(Cl)c2)cc1OC`, the IC50 was 0.8 µM.

Work on `O=c1oc2ccccc2c(O)c1/C=C1\C=Nc2ccccc21` yielded an IC50 of 6.1 µM.

`Fc1ccccc1CNC(=S)Nc1cccc(C(F)(F)F)c1` showed an IC50 of 8.28 µM.

In the case of `COc1ccc(C(=O)Nc2ccc(-n3nncc3C(C)(C)C)cc2)cc1`, the IC50 is reported as 6.59 µM.

Molecule `Cc1ccc(/C(N)=N/OC(=O)c2ccc3c(c2)OCO3)cc1` has an IC50 of 2.42 µM.

For `Cc1nonc1C1CCCN1C(=O)c1cc(COc2cccc(C(F)(F)F)c2)on1` (centres undefined), the IC50 was 9.73 µM.

With `O=C(Nc1cccc(N2C(=O)C=CC2=O)c1)c1cccs1` the IC50 was 2.61 µM.

In the case of `Cc1cccc(NC(=O)c2ccc([N+](=O)[O-])s2)n1`, the IC50 is reported as 1.39 µM.

`CCCOc1ccc(CN(CCC#N)C(=S)NC(=O)c2ccccc2)cc1` showed an IC50 of 10.2 µM.

`O=C(c1ccc2c3n(nc2c1)-c1ccccc1CO3)N1CCCCC1` gave an IC50 of 8.99 µM.

`Cc1ccc(NC(=O)c2cc(S(=O)(=O)NCCC3=CCCCC3)ccc2F)cc1` gave an IC50 of 12.3 µM.

In the case of `O=C(NNC(=S)Nc1ccc(Cl)cc1)c1ccccc1OC(F)F`, the IC50 is reported as 4.44 µM.

`CCOC(=O)/C=C/C(=O)OCC(=O)Nc1ccc([N+](=O)[O-])cc1` showed an IC50 of 3.98 µM.

For `CC1=C/C(=N\OS(=O)(=O)c2ccccc2)C=CC1=O`, the IC50 was 0.26 µM.

In the case of `Clc1ccc(CNc2nc(CN3CCOCC3)nc3scc(-c4ccccc4)c23)cc1`, the IC50 is reported as 4.96 µM.

In the case of `CC(=O)c1ccc(NC(=S)NC(C)c2ccc(Cl)cc2Cl)cc1` (centres undefined), the IC50 is reported as 9.11 µM.

For `Cc1cc(/C=C\c2ccc3cc(N(C)C)ccc3[n+]2C)c(C)n1-c1ccccc1`, the IC50 was 3.92 µM.

`COc1ccc(C(=O)O/N=C(\N)c2ccccc2Cl)cc1OC` gave an IC50 of 9.27 µM.

`Cc1cc([N+](=O)[O-])ccc1-c1ccc(C2Nc3ccccc3C(=O)N2O)o1` (centres undefined) was tested, and the IC50 was 9.76 µM.

For `N/C(=N\OC(=O)c1ccc(Cl)cc1)c1ccc(Cl)cc1`, the IC50 was > 100 µM (inactive).

Work on `O=C(NNC(=S)Nc1cccc(C(F)(F)F)c1)c1cccc(Cl)c1` yielded an IC50 of 9.48 µM.

In the case of `CCOC(=O)c1ccc(N2C(=O)C=CC2=O)cc1`, the IC50 is reported as 0.41 µM.

`Cc1cc(C)cc(N2C(=O)CC(Sc3nnnn3-c3ccccc3)C2=O)c1` (centres undefined) was tested, and the IC50 was 0.69 µM.

With `O=[N+]([O-])c1ccccc1N/N=C/c1c[nH]c2ccccc12` the IC50 was 5.11 µM.

`CN=C(Nc1cc(Cl)ccc1Cl)SC1CC(=O)N(c2ccc(C(=O)OC)cc2)C1=O` (centres undefined) showed an IC50 of 6.33 µM.

`N/C(Cc1ccc(Cl)cc1)=N\OC(=O)c1ccc2ccccc2c1` showed an IC50 of 0.26 µM.

`Cc1ccccc1OCC(=O)Nc1ccc(S(=O)(=O)N2CCCC2)cc1` was tested, and the IC50 was 5.36 µM.

Work on `CC(C)(C)c1ccc(CN2N=Nc3ccccc3S2(=O)=O)cc1` yielded an IC50 of 2.99 µM.

`N#C/C(=N/Nc1ccc(OC(F)(F)F)cc1)C(N)=S` was tested, and the IC50 was 1.22 µM.

`CC(C)(C)OC(=O)N[C@@H](Cc1ccccc1)c1nnc(S(=O)(=O)Cc2cccc(F)c2)o1` showed an IC50 of 1.19 µM.

Work on `Cn1c(/C=C/c2ccc([N+](=O)[O-])o2)nc2ccccc2c1=O` yielded an IC50 of 4.94 µM.

`Cc1ccccc1/C=C/C(=O)c1ccc([N+](=O)[O-])o1` was tested, and the IC50 was 0.66 µM.

Work on `CCCn1c(CC)nc([N+](=O)[O-])c1S(=O)(=O)c1ccccc1` yielded an IC50 of 2.72 µM.

`COc1ccc(-n2cc(-c3ccccc3)c3c(=S)nc[nH]c32)cc1` was tested, and the IC50 was > 100 µM (inactive).

In the case of `NC(=NCCCCCCN=C(N)/N=C(\N)Nc1ccc(Cl)cc1)/N=C(\N)Nc1ccc(Cl)cc1`, the IC50 is reported as > 100 µM (inactive).

For `Nc1nc(N)c(C=Nc2ccc(Br)cc2)c(Nc2ccc(Br)cc2)n1`, the IC50 was 10.8 µM.

With `COc1ccc(-c2[nH]ncc2N=Nc2ccccc2)cc1` the IC50 was 5.88 µM.

`Cc1ccc(S(=O)(=O)c2nc(S(C)(=O)=O)sc2N2CCCCC2C)cc1` (centres undefined) showed an IC50 of 2.35 µM.

`COc1ccc(Br)cc1[C@H]1[C@@H]2C=CCC[C@@]2(C)C(=O)N1Cc1ccccc1` was tested, and the IC50 was 6.12 µM.

`Cn1c(Cl)cnc1C1CC(=O)c2cc(Cl)ccc2O1` (centres undefined) showed an IC50 of 1.98 µM.

For `Clc1ccccc1OCc1nnc(-c2ccccc2Br)o1`, the IC50 was 16.6 µM.

With `COc1ccc(Br)cc1[C@H]1[C@H]2C=CC[C@@H](C)[C@@H]2C(=O)N1Cc1ccccc1` the IC50 was 6.86 µM.

`CC(C)C(c1nnnn1C1CCCC1)N1CCCc2ccccc21` (centres undefined) gave an IC50 of 5.94 µM.

In the case of `C/C(=N\NC(=S)NCc1ccccc1)c1ccc(Cl)s1`, the IC50 is reported as 11.6 µM.

`CCCCCCC(=O)N(O)C1CC(=O)N(c2ccc(C)cc2)C1=O` (centres undefined) gave an IC50 of 4.38 µM.

Molecule `COc1cc(N=c2ssnc2Cl)c(OC)cc1Cl` has an IC50 of 3.15 µM.

Work on `CCOC(=O)c1cc(-c2cccs2)nc2c1c(C)nn2-c1ccccn1` yielded an IC50 of 8.92 µM.

With `CN(CCCC(=O)O)c1ccc(N=Nc2ccc([N+](=O)[O-])cc2)cc1` the IC50 was 14.5 µM.

For `CCOc1ccccc1N1C(=O)CC(Sc2n[nH]c(-c3ccccc3)n2)C1=O` (centres undefined), the IC50 was 2.27 µM.

Work on `COc1cc(/C=C/c2ccc3cccc(O)c3n2)c(Br)cc1O` yielded an IC50 of 9.2 µM.

Work on `COc1cc(OC)c(C(=O)O/N=C(\N)c2ccc(C)cc2)cc1OC` yielded an IC50 of 5.99 µM.

Molecule `CCOC(=O)c1c(CSc2ccc(C)cc2)n(C)c2cc(Br)c(O)c(CN(C)C)c12` has an IC50 of 12.8 µM.

`CCOC(=O)c1ccc(NC(=O)CC2OCCN(CC)C2=O)cc1` (centres undefined) showed an IC50 of 1.28 µM.

`O=C(N/N=C/c1ccc[nH]1)c1cc(-c2ccc(Cl)cc2)nc2ccccc12` showed an IC50 of 4.98 µM.

For `CCN(CC)C1CC(=O)N(c2cccc(Cl)c2)C1=O` (centres undefined), the IC50 was 1.74 µM.

`Nc1c(C(=O)Nc2ccccc2)c2nc3ccccc3nc2n1CCCN1CCOCC1` showed an IC50 of 9.74 µM.

`O=C(/C=C\c1ccc(-c2ccccc2)o1)c1ccccc1` showed an IC50 of 2.39 µM.

`O=C(NC(=S)Nc1ccccc1N1CCCC1)c1ccc([N+](=O)[O-])cc1` gave an IC50 of 8.53 µM.
